Counter-ions that a name gives are not always drawn.
Biological target: NLRP3 (Homo sapiens, UniProt Q96P20)
Assay: THP-1 cells pyroptosis assay (LPS + nigericin, resazurin read-out)
Type: cell-based
Parameters: Seed THP-1 cells (25,000 cells/well) containing 1.0 μg/ml LPS; host or cells: THP-1 cells
Conditions: NLRP3 inhibitory activity, 1 μg/ml LPS, 5 μM nigericin
Procedure: The cells were routinely passaged and grown to confluency (˜10^6 cells/ml). On the day of the experiment, THP-1 cells were harvested and resuspended into RPMI medium (without FBS). The cells were then counted and viability (>90%) checked by Trypan blue (Sigma #T8154). […] To this diluted cell solution was added LPS (Sigma #L4524) to give a 1 μg/ml Final Assay Concentration (FAC). 40 μl of the final preparation was aliquoted into each well of a 96-well plate. The plate thus prepared was used for compound screening. The following method step-by-step assay was followed for compound screening. • 1. […] Incubate for 3 hrs at 37° C., 5% CO2 • 4. Add 5 μl nigericin (Sigma #N7143) (FAC 5 μM) to all wells • 5. Incubate for 1 hr at 37° C., 5% CO2 • 6. At the end of the incubation period, spin plates at 300×g for 3 mins and remove supernatant • 7. Then add 50 μl of resazurin (Sigma #R7017) (FAC 100 μM resazurin in RPMI medium without FBS) and incubate plates for a further 1-2 hrs at 37° C. and 5% CO2 • 8.

NLRP3, sequence (Q96P20 whole entry): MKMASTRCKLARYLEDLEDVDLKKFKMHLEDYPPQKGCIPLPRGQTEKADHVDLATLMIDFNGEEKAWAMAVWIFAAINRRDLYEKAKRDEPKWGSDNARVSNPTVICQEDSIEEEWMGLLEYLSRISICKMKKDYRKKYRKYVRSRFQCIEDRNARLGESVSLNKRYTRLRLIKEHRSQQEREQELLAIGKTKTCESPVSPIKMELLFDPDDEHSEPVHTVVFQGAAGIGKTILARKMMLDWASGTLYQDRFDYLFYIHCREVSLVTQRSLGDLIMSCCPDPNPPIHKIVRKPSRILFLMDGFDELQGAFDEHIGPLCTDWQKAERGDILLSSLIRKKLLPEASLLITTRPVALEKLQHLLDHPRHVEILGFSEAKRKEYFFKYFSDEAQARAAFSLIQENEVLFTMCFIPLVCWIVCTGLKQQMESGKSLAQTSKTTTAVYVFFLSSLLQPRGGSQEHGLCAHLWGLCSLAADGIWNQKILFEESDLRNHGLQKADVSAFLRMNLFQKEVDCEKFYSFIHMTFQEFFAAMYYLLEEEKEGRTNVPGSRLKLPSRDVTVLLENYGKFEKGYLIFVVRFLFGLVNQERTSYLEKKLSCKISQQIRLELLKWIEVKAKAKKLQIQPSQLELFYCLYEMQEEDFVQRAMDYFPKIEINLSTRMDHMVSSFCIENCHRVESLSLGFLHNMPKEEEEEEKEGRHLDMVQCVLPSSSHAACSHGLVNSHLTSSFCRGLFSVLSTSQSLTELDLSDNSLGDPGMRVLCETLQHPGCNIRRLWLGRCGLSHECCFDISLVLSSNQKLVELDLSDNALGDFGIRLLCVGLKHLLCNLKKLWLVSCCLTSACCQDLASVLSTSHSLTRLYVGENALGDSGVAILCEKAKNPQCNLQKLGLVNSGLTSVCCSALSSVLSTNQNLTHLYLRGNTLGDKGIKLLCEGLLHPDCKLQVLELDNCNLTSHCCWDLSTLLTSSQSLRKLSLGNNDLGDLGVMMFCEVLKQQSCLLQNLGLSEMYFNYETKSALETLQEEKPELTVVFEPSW

Q: Which IC50 does the source give for `CC(C)c1cc(F)cc2c1C(C(=O)NS(=O)(=O)c1cnn(C3CC3)c1)CC2(C)C` (centres unmarked) [Example 7, N-((1-Cyclopropyl-1H-pyrazol-4-yl)sulfonyl)-5-fluoro-7-isopropyl-3,3-dimethyl-2,3-dihydro-1H-indene-1-carboxamide] here?
A: 5 to 10 µM

Q: With `CC(C)n1ccc(S(=O)(=O)NC(=O)Nc2c3c(c(Br)c4c2CCC4)CCC3)n1` [Example 38, N-((8-Bromo-1,2,3,5,6,7-hexahydro-s-indacen-4-yl)carbamoyl)-1-isopropyl-1H-pyrazole-3-sulfonamide] as the compound, how does the IC50 read?
A: < 0.25 µM

Q: For `CC(C)n1ccc(S(=O)(=O)NC(=O)Nc2c3c(c(C#N)c4c2CCC4)CCC3)n1` [Example 37, N-((8-Cyano-1,2,3,5,6,7-hexahydro-s-indacen-4-yl)carbamoyl)-1-isopropyl-1H-pyrazole-3-sulfonamide], which IC50 is on record?
A: 0.25 to 0.5 µM

Q: With `CC(C)c1cc(F)cc(C(C)C)c1NC(=O)NS(=O)(=O)c1ccn(CC(F)(F)F)n1` [Example 78, N-((4-Fluoro-2,6-diisopropylphenyl)carbamoyl)-1-(2,2,2-trifluoroethyl)-1H-pyrazole-3-sulfonamide, sodium salt] as the compound, how does the IC50 read?
A: 1 to 5 µM

Q: Which IC50 does the source give for `CC(C)c1cccc(O[C@H]2CCOC2)c1NC(=O)NS(=O)(=O)c1ccn(C(C)C)n1` [Example 86, (S)-1-Isopropyl-N-((2-isopropyl-6-((tetrahydrofuran-3-yl)oxy)phenyl)carbamoyl)-1H-pyrazole-3-sulfonamide] here?
A: 1 to 5 µM

Q: `CC(C)c1cc(F)cc2c1C(C(=O)NS(=O)(=O)c1ccn(C(C)C)n1)CC2(C)C` (centres unmarked) [Example 10, 5-Fluoro-7-isopropyl-N-((1-isopropyl-1H-pyrazol-3-yl)sulfonyl)-3,3-dimethyl-2,3-dihydro-1H-indene-1-carboxamide, potassium salt (rotamer P2)] was tested. Which IC50 did it give?
A: 5 to 10 µM

Q: `CC(C)c1cc(F)cc(C(C)C)c1CC(=O)NS(=O)(=O)c1cc(C(C)(C)O)n(C)n1` [Example 32, 2-(4-Fluoro-2,6-diisopropylphenyl)-N-((5-(2-hydroxypropan-2-yl)-1-methyl-1H-pyrazol-3-yl)sulfonyl)acetamide, ammonium salt] was tested. Which IC50 did it give?
A: 1 to 5 µM

Q: How did the IC50 turn out when `CC(C)(C)OC(=O)NC/C(=C\F)COc1ccc(S(=O)(=O)NC(=O)Nc2c3c(cc4c2CCC4)CCC3)cc1` [Example 18, tert-Butyl-(3-fluoro-2-((4-(N-((1,2,3,5,6,7-hexahydro-s-indacen-4-yl)carbamoyl)sulfamoyl)phenoxy)methyl)allyl)carbamate, potassium salt] was run?
A: 1 to 5 µM

Q: `COc1cc(-c2ccc3c(c2NC(=O)NCc2nnn[nH]2)CCC3)ccn1` [Example 88, 1((1H-Tetrazol-5-yl)methyl)-3-(5-(2-methoxypyridin-4-yl)-2,3-dihydro-1H-inden-4-yl)urea] was tested. Which IC50 did it give?
A: 5 to 10 µM

Q: `CC(C)c1cc(F)cc(C(C)C)c1CC(=O)NS(=O)(=O)c1ccn(C(C)C)n1` [Example 26, 2-(4-Fluoro-2,6-diisopropylphenyl)-N-((1-isopropyl-1H-pyrazol-3-yl)sulfonyl)acetamide] was tested. Which IC50 did it give?
A: 1 to 5 µM

Q: How did the IC50 turn out when `CC(C)c1cc(F)cc(C(C)C)c1NC(=O)NS(=O)(=O)c1cc(C(C)(C)O)n(C(C)C)n1` [Example 50, N-((4-Fluoro-2,6-diisopropylphenyl)carbamoyl)-5-(2-hydroxypropan-2-yl)-1-isopropyl-1H-pyrazole-3-sulfonamide] was run?
A: 0.25 to 0.5 µM

Q: With `CC(C)c1cc(-c2ccccc2)cc(C(C)C)c1NC(=O)NS(=O)(=O)c1ccn(C(C)C)n1` [Example 73, N-((3,5-Diisopropyl-[1,1′-biphenyl]-4-yl)carbamoyl)-1-isopropyl-1H-pyrazole-3-sulfonamide] as the compound, how does the IC50 read?
A: 5 to 10 µM

Q: How did the IC50 turn out when `CC(C)c1cc(F)cc2c1C(C(=O)NS(=O)(=O)c1cc(C(=O)N(C)C)n(C)n1)CC2(C)C` (centres unmarked) [Example 11, 3-(N-(5-Fluoro-7-isopropyl-3,3-dimethyl-2,3-dihydro-1H-indene-1-carbonyl)sulfamoyl)-N,N,1-trimethyl-1H-pyrazole-5-carboxamide] was run?
A: 5 to 10 µM

Q: For `COc1cc(-c2cc(F)cc(C(C)C)c2CC(=O)Nc2ncco2)ccn1` [Example 95, 2-(4-Fluoro-2-isopropyl-6-(2-methoxypyridin-4-yl)phenyl)-N-(oxazol-2-yl)acetamide], which IC50 is on record?
A: 5 to 10 µM
